Activity calls are given as the source filed them. The calls are words filed in the database; no cut-off is given here.
Columns and labels:
THP-1 [1] = test: Antiinflammatory activity in human THP1 cells assessed as reduction in LPS-induced IL-1beta secretion at 10 to 90 uM preincubated for 3 hrs followed by LPS stimulation and measured after 18 hrs by ELISA; type: functional, cell-based
THP-1 [2] = test: Antiinflammatory activity in human THP1 cells assessed as reduction in LPS-induced TNF secretion at 10 to 90 uM preincubated for 3 hrs followed by LPS stimulation and measured after 18 hrs by ELISA; type: functional, cell-based
[3] = Cytotoxicity against human THP1 cells assessed as cell viability at 10 to 90 uM incubated for 18 hrs by sulforhodamine B assay relative to control; type: cell-based; details: THP-1 cells, read-out: Activity
THP-1 [4] = test: Antiinflammatory activity in human THP1 cells assessed as reduction in LPS-induced CCL2 secretion preincubated for 3 hrs followed by LPS stimulation and measured after 18 hrs by ELISA; type: functional, cell-based

Row | IC50 (THP-1 [4]) | SMILES | Activity (THP-1 [1]) | Activity (THP-1 [2]) | viability at 18 h, up to 90 µM [3]
1 |  | COc1cc(O)c2c(c1)O[C@H](c1ccc(O)cc1)[C@@H]([C@H]1C(=O)c3c(O)cc(O)cc3O[C@@H]1c1ccc(O)cc1)C2=O | inactive | inactive | > 90%
2 |  | O=C1c2c(O)cc(O)cc2O[C@H](c2ccc(O)cc2)[C@@H]1[C@@H]1C(=O)c2c(O)cc(O)cc2O[C@@H]1c1ccc(O)cc1 [NEOCHAMAEJASMIN A] | inactive | inactive | > 90%
3 | 3.1 µM | COc1cc(O)c2c(c1)O[C@H](c1ccc(O)cc1)[C@@H]([C@H]1C(=O)c3c(O)cc(OC)cc3O[C@@H]1c1ccc(O)cc1)C2=O | inactive | inactive | > 90%
4 |  | COc1cc(O)c2c(c1)O[C@H](c1ccc(O)cc1)[C@H]([C@@H]1C(=O)c3c(O)cc(OC)cc3O[C@@H]1c1ccc(O)cc1)C2=O | inactive | inactive | > 90%

Reference: ChEMBL document CHEMBL4622875, “(3,3″)-Linked Biflavanones from Ouratea spectabilis and Their Effects on the Release of Proinflammatory Cytokines in THP-1 Cells” (J Nat Prod, 2020)
